Source: patent publication US9643964B2, “3-(2-aminopyrimidin-4-yl)-5-(3-hydroxypropynyl)-1H-pyrrolo[2,3-C]pyridine derivatives as NIK inhibitors for the treatment of cancer” (Janssen Pharmaceutica NV, priority 2013, dated 2017)
pEC50, pIC50: −log10 of the molar value.

How the values were obtained:
[1] = target: Recombinant Human NF-kappaB-Inducing Kinase (NIK/MAP3K14) (Homo sapiens, UniProt Q99558); assay: Biological Assay A2: inhibition of auto-phosphorylation of recombinant human NIK/MAP3K14 (AlphaScreen); assay type: biochemical; details: auto-phosphorylation; averaged over all measurements on all batches; read-out: αscreen IC50
Protocol: Inhibition of Auto-Phosphorylation of Recombinant Human NF-kappaB-Inducing Kinase (NIK/MAP3K14) Activity (AlphaScreen®)
NIK/MAP3K14 auto-phosphorylation activity was measured using the AlphaScreen® (αscreen) format (Perkin Elmer). All compounds tested were dissolved in dimethyl sulfoxide (DMSO) and further dilutions were made in assay buffer. Final DMSO concentration was 1% (v/v) in assays. Assay buffer was 50 mM Tris pH 7.5 containing 1 mM EGTA (ethylene glycol tetraacetic acid), 1 mM DTT (dithiothreitol), 0.1 mM Na3VO4, 5 mM MgCl2, 0.01% Tween 20. Assays were carried out in 384 well Alphaplates (Perkin Elmer). Incubations consisted of compound, 25 microM Adenosine-5′-triphosphate (ATP), and 0.2 nM NIK/MAP3K14. Incubations were initiated by addition of GST-tagged NIK/MAP3K14 enzyme, carried out for 1 h at 25° C. and terminated by addition of stop buffer containing anti-phospho-IKK Ser176/180 antibody. Protein A Acceptor and Glutathione-Donor beads were added before reading using an EnVision® Multilabel Plate Reader (Perkin Elmer). Signal obtained in the wells containing blank samples was subtracted from all other wells and IC50's were determined by fitting a sigmoidal curve to % inhibition of control versus Log10 compound concentration.

LP-1 cells = assay: Biological Assay C: antiproliferative activity on LP-1 cells (CellTiter-Glo); assay type: cell-based, human; details: Homo sapiens, LP-1, 72 h, 72 hr treatment; averaged values
Protocol: (§1) Determination of Antiproliferative Activity on LP-1, L-363 and JJN-3 Cells
(§2) All compounds tested were dissolved in DMSO and further dilutions were made in culture medium. Final DMSO concentration was 0.3% (v/v) in cell proliferation assays. Viability was assessed using CellTiter-Glo cell viability assay kit (Promega). The human LP-1, L-363 and JJN-3 cells (DSMZ) were cultured in RPMI 1640 medium supplemented with 2 mM L-glutamine, and 10% fetal calf serum (PAA). Cells were routinely kept as suspension cells at 37° C. in a humidified 5% CO2 atmosphere. Cells were passaged at a seeding density of 0.2×10^6/ml twice a week. Cells were seeded in black tissue culture treated 96-well plates (Perkin Elmer). Densities used for plating ranged from 2,000 to 6,000 cells per well in a total volume of 75 μl medium. After twenty four hours, drugs and/or solvents were added (25 μl) to a final volume of 100 μl. Following 72 hr of treatment plates were removed from the incubator and allowed to equilibrate to room temperature for approx 10 min. 100 μl CellTiter-Glo reagent was added to each well that was then covered (Perkin Elmer Topseal) and shaken on plate shaker for 10 min. Luminescence was measured on a HTS Topcount (Perkin Elmer). Within an experiment, the results for each treatment were the mean of 2 replicate wells. For initial screening purposes, compounds were tested using a 9 point dilution curve (serial 1:3 dilutions). For each experiment, controls (containing no drug) and a blank incubation (containing cells read at the time of compound addition) were run in parallel. The blank value was subtracted from all control and sample values. For each sample, the mean value for cell growth (in relative light units) was expressed as a percentage of the mean value for cell growth of the control.

L-363 cells = assay: Biological Assay C: antiproliferative activity on L-363 cells (CellTiter-Glo); assay type: cell-based, human; details: Homo sapiens, L-363, 72 h, 72 hr treatment; averaged values
Protocol: as §1, §2

JJN-3 cells = assay: Biological Assay C: antiproliferative activity on JJN-3 cells (CellTiter-Glo); assay type: cell-based, human; details: Homo sapiens, JJN-3, 72 h, 72 hr treatment; averaged values
Protocol: as §1, §2

Chain of Recombinant Human NF-kappaB-Inducing Kinase (NIK/MAP3K14) (Q99558 whole entry): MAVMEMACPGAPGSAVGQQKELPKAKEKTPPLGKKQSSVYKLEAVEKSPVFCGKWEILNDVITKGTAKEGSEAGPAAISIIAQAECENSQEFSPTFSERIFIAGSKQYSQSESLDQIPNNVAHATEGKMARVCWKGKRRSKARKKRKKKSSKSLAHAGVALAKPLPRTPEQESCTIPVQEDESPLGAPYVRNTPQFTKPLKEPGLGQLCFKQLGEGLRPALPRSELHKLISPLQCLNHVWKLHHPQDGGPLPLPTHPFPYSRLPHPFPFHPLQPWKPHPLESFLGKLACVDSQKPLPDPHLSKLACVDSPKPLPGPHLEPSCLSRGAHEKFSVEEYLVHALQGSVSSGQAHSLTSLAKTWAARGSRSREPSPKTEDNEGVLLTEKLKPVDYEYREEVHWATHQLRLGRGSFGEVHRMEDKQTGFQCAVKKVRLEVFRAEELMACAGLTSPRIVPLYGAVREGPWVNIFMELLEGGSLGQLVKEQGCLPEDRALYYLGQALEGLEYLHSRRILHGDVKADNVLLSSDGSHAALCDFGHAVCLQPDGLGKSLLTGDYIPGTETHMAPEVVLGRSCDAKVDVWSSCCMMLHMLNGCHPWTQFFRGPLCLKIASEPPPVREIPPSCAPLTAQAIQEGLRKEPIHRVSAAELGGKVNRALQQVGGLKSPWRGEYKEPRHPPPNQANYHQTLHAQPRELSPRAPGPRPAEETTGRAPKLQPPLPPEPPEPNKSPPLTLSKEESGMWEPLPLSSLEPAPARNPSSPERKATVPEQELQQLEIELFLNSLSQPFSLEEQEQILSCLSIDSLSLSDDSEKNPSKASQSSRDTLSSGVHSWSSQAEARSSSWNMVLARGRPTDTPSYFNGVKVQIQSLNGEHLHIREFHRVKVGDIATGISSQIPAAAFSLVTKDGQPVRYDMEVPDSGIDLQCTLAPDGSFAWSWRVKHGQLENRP

Row | Compound | pIC50 [1] | pEC50 (LP-1 cells) | pEC50 (L-363 cells) | pEC50 (JJN-3 cells)
1 | COCCn1cc(-c2ccnc(N)n2)c2cc(C#CC(C)(O)C3CCNCC3)ncc21 (centres unmarked) [Compound 115] | 5.31 | < 5.00 | < 5.00 | < 5.00
2 | CNc1ncc(F)c(-c2cn(CCCOC)c3cnc(C#CC(C)(C)O)cc23)n1 [Compound 90] | 7.36 | 6.13 | 6.29 | 6.14
3 | CC(C)N1CCC(n2cc(-c3ccnc(N)n3)c3cc(C#CC(C)(C)O)ncc32)CC1 [Compound 78] | 6.89 | 5.70 | 6.39 | 6.24
4 | CCOCCN1CC(n2cc(-c3nc(N)ncc3F)c3cc(C#CC(C)(O)C4CC4)ncc32)C1 (centres unmarked) [Compound 158] | 6.74 | 6.13 | 6.41 | 6.36
5 | CN1CCC(n2cc(-c3nc(N)ncc3F)c3cc(C#CC(C)(O)C4CC4)ncc32)C1 (centres unmarked) [Compound 107] | 7.06 | 6.82 | 7.24 | 7.11
6 | CCN1CCC(n2cc(-c3nc(N)ncc3F)c3cc(C#CC(C)(O)C4CC4)ncc32)CC1 (centres unmarked) [Compound 106] | 7.02 | 6.47 | 7.05 | 6.92
7 | COCCCn1cc(-c2nc(N)ncc2F)c2cc(C#CC3(O)CCC3)ncc21 [Compound 95] | 8.15 | 6.33 | 7.02 | 6.82
8 | CC(=O)N1CC(n2cc(-c3nc(N)ncc3F)c3cc(C#CC(C)(O)C4CC4)ncc32)C1 (centres unmarked) [Compound 154] | 6.72 |  | 5.55 | 5.33
9 | CC(O)(C#Cc1cc2c(-c3nc(N)ncc3F)cn(C3CN(C4CCCC4)C3)c2cn1)C1CC1 (centres unmarked) [Compound 142] | 6.68 | 6.39 | 6.72 | 6.82
10 | Cc1cnc(N)nc1-c1cn(CC2CCOCC2)c2cnc(C#CC(C)(C)O)cc12 [Compound 82] | 7.46 | 4.89 | 6.05 | 5.96
11 | CCN1CCOC(Cn2cc(-c3nc(N)ncc3F)c3cc(C#CC(C)(O)C4CC4)ncc32)C1 (centres unmarked) [Compound 127] | 6.74 | 6.38 | 6.72 | 6.62
12 | COc1cnc(N)nc1-c1cn(C(C)C)c2cnc(C#CC(C)(O)C3CC3)cc12 (centres unmarked) [Compound 149] | 7.66 |  | 7.66 | 7.42
13 | CC(O)(C#Cc1cc2c(-c3nc(N)ncc3F)cn(C3CN(C4CC4)C3)c2cn1)CF (centres unmarked) [Compound 161] | 7.40 | 6.47 | 6.96 | 6.82
14 | Cc1nc(C#CC(C)(O)C2CC2)cc2c(-c3nc(N)ncc3F)cn(C3COC3)c12 (centres unmarked) [Compound 133] | 7.30 | 6.48 | 7.18 | 6.85
15 | COCCCn1cc(-c2nc(N)ncc2F)c2cc(C#CC(C)(O)C3CC3)ncc21 (centres unmarked) [Compound 88] | 7.82 | 6.66 | 6.96 | 6.89
16 | COCC(C)n1cc(-c2nc(N)ncc2F)c2cc(C#CC(C)(O)C3CC3)ncc21 (centres unmarked) [Compound 128] | 7.12 | 6.51 | 6.92 | 6.89
17 | CC(C)(O)C#Cc1cc2c(-c3nc(N)ncc3F)cn(C3CCN(CCF)C3)c2cn1 (centres unmarked) [Compound 151] | 7.27 |  | 7.35 | 7.34
18 | CC(=O)NCCCn1cc(-c2ccnc(N)n2)c2cc(C#CC(C)(C)O)ncc21 [Compound 148] | 7.19 |  | 5.12 | 5.04
19 | CC(O)(C#Cc1cc2c(-c3nc(N)ncc3F)cn(C3CN(CC(F)(F)F)C3)c2cn1)C1CC1 (centres unmarked) [Compound 145] | 6.85 |  | 6.47 | 6.59
20 | CC(O)(C#Cc1cc2c(-c3nc(N)ncc3F)cn(C3CCN(CCC(F)(F)F)C3)c2cn1)C1CC1 (centres unmarked) [Compound 152] | 7.33 |  | 7.12 | 7.32
21 | CC(C)n1cc(-c2nc(N)ncc2F)c2cc(C#CC3(O)CCN(C)C3=O)ncc21 (centres unmarked) [Compound 150] | 6.68 |  | 5.82 | 5.80
22 | COCc1cnc(N)nc1-c1cn(C(C)C)c2cnc(C#CC(C)(O)C3CC3)cc12 (centres unmarked) [Compound 143] | 7.13 |  | 6.77 | 6.57

Further lines, with some results ahead:

Row | pIC50 [1] | Compound | pEC50 (LP-1 cells) | pEC50 (L-363 cells) | pEC50 (JJN-3 cells)
23 | 8.05 | COCCCn1cc(-c2nc(N)ncc2F)c2cc(C#CC3(O)CCCC3)ncc21 [Compound 87] | 5.92 | 6.35 | 6.28
24 | 7.06 | CN1CCC(n2cc(-c3ccnc(N)n3)c3cc(C#CC(C)(C)O)ncc32)CC1 [Compound 77] | 5.40 | 6.49 | 6.24
25 | 7.34 | CC(O)(C#Cc1cc2c(-c3nc(N)ncc3F)cn(C3CCN(CC4CC4)CC3)c2cn1)C1CC1 (centres unmarked) [Compound 165] | 6.34 | 6.70 | 6.66
26 | 6.72 | COCCCN1CC(n2cc(-c3nc(N)ncc3F)c3cc(C#CC(C)(O)C4CC4)ncc32)C1 (centres unmarked) [Compound 156] |  | 6.44 | 6.49
27 | 6.89 | CCCCC(=O)NCCCn1cc(-c2ccnc(N)n2)c2cc(C#CC(C)(C)O)ncc21 [Compound 147] |  | 6.28 | 5.85
28 | 7.43 | COCc1cnc(N)nc1-c1cn(C(C)C)c2cnc(C#CC(C)(C)O)cc12 [Compound 144] |  | 7.80 | 7.46
29 | 6.85 | COCCN1CC(n2cc(-c3nc(N)ncc3F)c3cc(C#CC(C)(O)C4CC4)ncc32)C1 (centres unmarked) [Compound 155] |  | 6.42 | 6.40
30 | 7.34 | CC(O)(C#Cc1cc2c(-c3nc(N)ncc3F)cn(C3CN(C4CC4)C3)c2cn1)C1CC1 (single isomer, unassigned) [Compound 157] |  | 6.85 | 6.74
31 | 7.13 | CC(O)(C#Cc1cc2c(-c3nc(N)ncc3F)cn(C3CCN(CCF)C3)c2cn1)C1CC1 (centres unmarked) [Compound 153] |  | 6.82 | 6.89
32 | 6.70 | CC(O)(C#Cc1cc2c(-c3nc(N)ncc3F)cn(C3CN(CC4CCCC4)C3)c2cn1)C1CC1 (centres unmarked) [Compound 146] |  | 6.24 | 6.35
